Assay results published in ChEMBL document CHEMBL3603790, “2- and 3-Fluoro-3-deazaneplanocins, 2-fluoro-3-deazaaristeromycins, and 3-methyl-3-deazaneplanocin: Synthesis and antiviral properties” (Bioorg Med Chem, 2015).
The source made the active and inactive calls. The calls are words filed in the database; no cut-off is given here.

tested on: not listed separately; experiment: Selectivity index, ratio of CC50 for human HepG2(2.2.1) cells to IC50 for HBV; type: functional; conditions: not given

| SMILES | Ratio CC50/IC50 |
| --- | --- |
| Nc1nc(F)cc2c1ncn2[C@@H]1C=C(CO)[C@@H](O)[C@H]1O | 17 |

tested on: not listed separately; experiment: Selectivity index, ratio of CC50 for HFF to IC50 for HCMV; type: functional; conditions: not given

| SMILES | Ratio CC50/IC50 |
| --- | --- |
| Nc1nc(F)cc2c1ncn2[C@@H]1C=C(CO)[C@@H](O)[C@H]1O | 25 |

tested on: Hepatitis B virus; experiment: Antiviral activity against HBV infected in human HepG22.2.15 cells after 3 days by neutral red dye-based plaque reduction assay; type: functional, organism-based; conditions: HepG2 2.2.15, 72 h

| SMILES | IC50 [µM] |
| --- | --- |
| Nc1nc(F)cc2c1ncn2[C@@H]1C=C(CO)[C@@H](O)[C@H]1O | 0.67 |

tested on: MDCK; experiment: Cytotoxicity against MDCK cells; type: cell-based, Canis lupus familiaris; conditions: dog, mdck

| SMILES | Activity |
| --- | --- |
| Nc1nc(F)cc2c1ncn2[C@@H]1C=C(CO)[C@@H](O)[C@H]1O | Non-toxic |

tested on: not listed separately; experiment: Cytotoxicity against human […] cells; type: cell-based; conditions: not given

| SMILES | CC50 [µM] |
| --- | --- |
| Nc1nc(F)cc2c1ncn2[C@@H]1C=C(CO)[C@@H](O)[C@H]1O | 11 |

tested on: Enterovirus C; experiment: Antiviral activity against Poliovirus infected in monkey LLC-MK2 cells after 3 days by neutral red dye-based plaque reduction assay; type: functional, organism-based; conditions: not given

| SMILES | Activity |
| --- | --- |
| Nc1nc(F)cc2c1ncn2[C@@H]1C=C(CO)[C@@H](O)[C@H]1O | inactive |

tested on: not listed separately; experiment: Selectivity index, ratio of CC50 for African green monkey Vero cells to IC50 for Yellow fever virus; type: functional; conditions: not given

| SMILES | Ratio CC50/IC50 |
| --- | --- |
| Nc1nc(F)cc2c1ncn2[C@@H]1C=C(CO)[C@@H](O)[C@H]1O | >50 |

tested on: SARS-CoV; experiment: Antiviral activity against SARS coronavirus infected in African green monkey Vero E6 cells after 3 days by neutral red dye-based plaque reduction assay; type: functional, organism-based; conditions: Severe acute respiratory syndrome-related coronavirus

| SMILES | Activity |
| --- | --- |
| Nc1nc(F)cc2c1ncn2[C@@H]1C=C(CO)[C@@H](O)[C@H]1O | inactive |

tested on: Yellow fever virus; experiment: Antiviral activity against Yellow fever virus infected in African green monkey Vero cells after 3 days by neutral red dye-based plaque reduction assay; type: functional, organism-based; conditions: 72 h

| SMILES | IC50 [µM] |
| --- | --- |
| Nc1nc(F)cc2c1ncn2[C@@H]1C=C(CO)[C@@H](O)[C@H]1O | 6.8 |

tested on: Vaccinia virus; experiment: Antiviral activity against Vaccinia virus infected in HEL cells after 3 days by neutral red dye-based plaque reduction assay; type: functional, organism-based; conditions: Orthopoxvirus vaccinia

| SMILES | Activity |
| --- | --- |
| Nc1nc(F)cc2c1ncn2[C@@H]1C=C(CO)[C@@H](O)[C@H]1O | inactive |

tested on: Venezuelan equine encephalitis virus; experiment: Antiviral activity against Venezuelan equine encephalitis virus infected in African green monkey Vero cells after 3 days by neutral red dye-based plaque reduction assay; type: functional, organism-based; conditions: not given

| SMILES | Activity |
| --- | --- |
| Nc1nc(F)cc2c1ncn2[C@@H]1C=C(CO)[C@@H](O)[C@H]1O | inactive |

tested on: Human alphaherpesvirus 2; experiment: Antiviral activity against Human herpesvirus 2 infected in HEL cells after 3 days by neutral red dye-based plaque reduction assay; type: functional, organism-based; conditions: not given

| SMILES | Activity |
| --- | --- |
| Nc1nc(F)cc2c1ncn2[C@@H]1C=C(CO)[C@@H](O)[C@H]1O | inactive |

tested on: Influenza A virus; experiment: Antiviral activity against Influenza A virus H1N1 infected in MDCK cells after 3 days by neutral red dye-based plaque reduction assay; type: functional, organism-based; conditions: not given

| SMILES | Activity |
| --- | --- |
| Nc1nc(F)cc2c1ncn2[C@@H]1C=C(CO)[C@@H](O)[C@H]1O | inactive |

tested on: HeLa; experiment: Cytotoxicity against human HeLa cells; type: cell-based; conditions: not given

| SMILES | Activity |
| --- | --- |
| Nc1nc(F)cc2c1ncn2[C@@H]1C=C(CO)[C@@H](O)[C@H]1O | Non-toxic |

tested on: not listed separately; experiment: Cytotoxicity against African green monkey CV1 cells; type: cell-based, CV-1; conditions: chlorocebus aethiops

| SMILES | CC50 [µM] |
| --- | --- |
| Nc1nc(F)cc2c1ncn2[C@@H]1C=C(CO)[C@@H](O)[C@H]1O | > 100 |

tested on: Respiratory syncytial virus; experiment: Antiviral activity against Respiratory syncytial virus infected in monkey MA104 cells after 3 days by neutral red dye-based plaque reduction assay; type: functional, organism-based; conditions: not given

| SMILES | Activity |
| --- | --- |
| Nc1nc(F)cc2c1ncn2[C@@H]1C=C(CO)[C@@H](O)[C@H]1O | inactive |

tested on: Dengue virus; experiment: Antiviral activity against Dengue virus infected in African green monkey Vero cells after 3 days by neutral red dye-based plaque reduction assay; type: functional, organism-based; conditions: not given

| SMILES | Activity |
| --- | --- |
| Nc1nc(F)cc2c1ncn2[C@@H]1C=C(CO)[C@@H](O)[C@H]1O | inactive |

tested on: not listed separately; experiment: Cytotoxicity against African green monkey Vero 76 cells; type: cell-based; conditions: chlorocebus sabaeus, vero 76

| SMILES | Activity |
| --- | --- |
| Nc1nc(F)cc2c1ncn2[C@@H]1C=C(CO)[C@@H](O)[C@H]1O | Non-toxic |

tested on: LLC-MK2; experiment: Cytotoxicity against monkey LLC-MK2 cells; type: cell-based, Macaca mulatta; conditions: rhesus monkey

| SMILES | Activity |
| --- | --- |
| Nc1nc(F)cc2c1ncn2[C@@H]1C=C(CO)[C@@H](O)[C@H]1O | Non-toxic |

tested on: Human alphaherpesvirus 1; experiment: Antiviral activity against Human herpesvirus 1 infected in HEL cells after 3 days by neutral red dye-based plaque reduction assay; type: functional, organism-based; conditions: not given

| SMILES | Activity |
| --- | --- |
| Nc1nc(F)cc2c1ncn2[C@@H]1C=C(CO)[C@@H](O)[C@H]1O | inactive |

tested on: not listed separately; experiment: Cytotoxicity against HFF; type: cell-based; conditions: human, HFF cells

| SMILES | CC50 [µM] |
| --- | --- |
| Nc1nc(F)cc2c1ncn2[C@@H]1C=C(CO)[C@@H](O)[C@H]1O | 218 |

tested on: Measles morbillivirus; experiment: Antiviral activity against Measles virus infected in African green monkey CV1 cells after 3 days by neutral red dye-based plaque reduction assay; type: functional, organism-based; conditions: CV-1, 72 h

| SMILES | IC50 [µM] |
| --- | --- |
| Nc1nc(F)cc2c1ncn2[C@@H]1C=C(CO)[C@@H](O)[C@H]1O | 8.5 |

tested on: West Nile virus; experiment: Antiviral activity against WNV infected in African green monkey Vero 76 cells after 3 days by neutral red dye-based plaque reduction assay; type: functional, organism-based; conditions: not given

| SMILES | Activity |
| --- | --- |
| Nc1nc(F)cc2c1ncn2[C@@H]1C=C(CO)[C@@H](O)[C@H]1O | inactive |

tested on: not listed separately; experiment: Cytotoxicity against monkey MA104 cells; type: cell-based, Macaca mulatta; conditions: rhesus monkey

| SMILES | Activity |
| --- | --- |
| Nc1nc(F)cc2c1ncn2[C@@H]1C=C(CO)[C@@H](O)[C@H]1O | Non-toxic |

tested on: Human betaherpesvirus 5; experiment: Antiviral activity against HCMV infected in HFF after 3 days by neutral red dye-based plaque reduction assay; type: functional, organism-based; conditions: Human betaherpesvirus 5, 72 h

| SMILES | IC50 [µM] |
| --- | --- |
| Nc1nc(F)cc2c1ncn2[C@@H]1C=C(CO)[C@@H](O)[C@H]1O | 8.7 |

tested on: not listed separately; experiment: Cytotoxicity against human Ava5 cells; type: cell-based; conditions: not given

| SMILES | Activity |
| --- | --- |
| Nc1nc(F)cc2c1ncn2[C@@H]1C=C(CO)[C@@H](O)[C@H]1O | Non-toxic |

tested on: Rift Valley fever virus; experiment: Antiviral activity against Rift Valley fever virus infected in African green monkey Vero 76 cells after 3 days by neutral red dye-based plaque reduction assay; type: functional, organism-based; conditions: not given

| SMILES | Activity |
| --- | --- |
| Nc1nc(F)cc2c1ncn2[C@@H]1C=C(CO)[C@@H](O)[C@H]1O | inactive |

tested on: Respiratory syncytial virus; experiment: Antiviral activity against Respiratory syncytial virus infected in human HeLa cells after 3 days by neutral red dye-based plaque reduction assay; type: functional, organism-based; conditions: not given

| SMILES | Activity |
| --- | --- |
| Nc1nc(F)cc2c1ncn2[C@@H]1C=C(CO)[C@@H](O)[C@H]1O | inactive |

tested on: HEL; experiment: Cytotoxicity against HEL cells; type: cell-based; conditions: human

| SMILES | Activity |
| --- | --- |
| Nc1nc(F)cc2c1ncn2[C@@H]1C=C(CO)[C@@H](O)[C@H]1O | Non-toxic |

tested on: Hepatitis C virus; experiment: Antiviral activity against Hepatitis C virus infected in human Ava5 cells after 3 days by neutral red dye-based plaque reduction assay; type: functional, organism-based; conditions: Hepacivirus hominis

| SMILES | Activity |
| --- | --- |
| Nc1nc(F)cc2c1ncn2[C@@H]1C=C(CO)[C@@H](O)[C@H]1O | inactive |

tested on: not listed separately; experiment: Cytotoxicity against African green monkey Vero cells; type: cell-based; conditions: chlorocebus sabaeus, Vero cells

| SMILES | CC50 [µM] |
| --- | --- |
| Nc1nc(F)cc2c1ncn2[C@@H]1C=C(CO)[C@@H](O)[C@H]1O | > 100 |

target: not listed separately; experiment: Inhibition of rabbit erythrocytic AdoHcy hydrolase using AdoHcy as substrate assessed as formation of L-homocysteine preincubated for 5 mins followed by substrate addition measured after 1 hr by thiol quantitation reagent-based assay; parameters: species or system Oryctolagus cuniculus; conditions: not given

| SMILES | IC50 [µM] |
| --- | --- |
| Nc1nc(F)cc2c1ncn2[C@@H]1C=C(CO)[C@@H](O)[C@H]1O | 1.4 |

tested on: not listed separately; experiment: Selectivity index, ratio of CC50 for African green monkey CV1 cells to IC50 for Measles virus; type: functional, CV-1; conditions: not given

| SMILES | Ratio CC50/IC50 |
| --- | --- |
| Nc1nc(F)cc2c1ncn2[C@@H]1C=C(CO)[C@@H](O)[C@H]1O | >12 |

tested on: not listed separately; experiment: Cytotoxicity against African green monkey Vero E6 cells; type: cell-based; conditions: chlorocebus sabaeus

| SMILES | Activity |
| --- | --- |
| Nc1nc(F)cc2c1ncn2[C@@H]1C=C(CO)[C@@H](O)[C@H]1O | Non-toxic |
